Results taken from patent publication US10517889B2, “Modulators of SMAD7 expression” (Ionis Pharmaceuticals, Inc., priority 2017, dated 2019).
Strand notation (5' to 3'): a small letter for the sugar, then the base; units joined by * are phosphorothioate-linked, units joined directly phosphodiester-linked; [ ] holds rarer units or linkages, { } end groups; capitals alone tell only the bases. e = 2'-O-(2-methoxyethyl) (MOE); [5mC] = 5-methylcytosine; d = 2'-deoxy (DNA)

Legend:
[1] = tested on: human SMAD7 mRNA; test: Antisense inhibition of human SMAD7 mRNA expression in Hep3B cells by 5-10-5 MOE gapmers, single concentration, electroporation, RT-PCR (Example 1, Study 1 and 2); assay type: cell-based
How it was run: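 Hep3B cells (20,000/well) electroporated with 5-10-5 MOE gapmer at 5,000 nM or 15,000 nM for approximately 24 h. SMAD7 mRNA quantified by real-time PCR with primer probe set RTS5062 and normalized to RIBOGREEN total RNA. Values are percent inhibition relative to untreated controls.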

[2] = tested on: human SMAD7 mRNA; test: Dose-dependent inhibition of human SMAD7 mRNA expression in Hep3B cells (Example 3, Study 1 and 2); assay type: cell-based; conditions: electroporation; for % inhibition of SMAD7 mRNA expression: approximately 16 hours; for IC50: Study 1 (312.5-20000 nM)
How it was run: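 Hep3B cells, 20,000 per well, electroporated with antisense oligonucleotide at 0.31, 1.25, 5.00 or 20.00 μM (first series) or 0.74, 2.22, 6.67 or 20.00 μM (second series). After ~16 h, SMAD7 mRNA measured by RT-qPCR (RTS5062), normalised to RIBOGREEN total RNA. Percent inhibition vs untreated cells; IC50 derived.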

[3] = Study 2, electroporation with 15,000 nM antisense oligonucleotide, 5-10-5 MOE gapmers targeting SEQ ID NO: 1 and 2
[4] = 312.5 nM, Study 1, relative to untreated control cells
[5] = electroporation, 15,000 nM antisense oligonucleotide (Study 2), 5-10-5 MOE gapmers targeting SEQ ID NO: 1 and 2
[6] = electroporation, 15,000 nM, approximately 24 hours, relative to untreated control cells, gapmers targeting SEQ ID NO: 1 and 2
[7] = electroporation with 15,000 nM antisense oligonucleotide (Study 2), 5-10-5 MOE gapmers targeting SEQ ID NO: 1 and 2

| Substance | % inhibition of SMAD7 mRNA expression [2, 4] [%] | % inhibition of SMAD7 mRNA expression ([2]; 1250.0 nM, Study 1) [%] | % inhibition of SMAD7 mRNA expression ([2]; 5000.0 nM, Study 1) [%] | % inhibition of SMAD7 mRNA expression ([2]; 20000.0 nM, Study 1) [%] | IC50 [2] [µM] | % Inhibition [1, 3] [%] | also measured |
| --- | --- | --- | --- | --- | --- | --- | --- |
| 771479 (antisense eG*eG*eG*eA*eA*d[5mC]*dA*d[5mC]*d[5mC]*dT*dT*dG*dT*dG*dT*eA*e[5mC]*e[5mC]*eA*eA) [compound 771479] | 0 | 8 | 49 | 74 | 7 | – | % inhibition of SMAD7 mRNA expression [1, 3]: 58% |
| 771397 (antisense eG*eA*eG*e[5mC]*eG*dG*d[5mC]*dG*dG*d[5mC]*dG*dG*d[5mC]*d[5mC]*d[5mC]*eG*eA*eG*eG*eG) [compound 771397] | 0 | 0 | 41 | 51 | 15 | – | % inhibition of SMAD7 mRNA expression [1, 5]: 55% |
| 771762 (antisense eG*eT*e[5mC]*eA*e[5mC]*d[5mC]*dA*d[5mC]*d[5mC]*dG*dA*dT*dG*d[5mC]*dA*eT*e[5mC]*e[5mC]*eA*eA) [compound 771762] | 0 | 0 | 38 | 67 | – | – | % inhibition of SMAD7 mRNA expression [1, 5]: 72% |
| 771711 (antisense e[5mC]*eG*e[5mC]*eA*e[5mC]*dT*dT*d[5mC]*dA*d[5mC]*dA*dG*dT*dT*d[5mC]*eA*e[5mC]*eA*eG*eG) [compound 771711] | 17 | 25 | 27 | 59 | 18 | 57 | – |
| 771416 (e[5mC]*e[5mC]*e[5mC]*e[5mC]*eA*dT*dG*d[5mC]*dG*d[5mC]*dT*d[5mC]*dG*dG*d[5mC]*eT*eG*eT*e[5mC]*e[5mC]; antisense) [compound 771416] | 0 | 3 | 19 | 35 | > 20 | 58 | – |
| 771836 (antisense eT*eG*eT*eT*eG*dA*dG*dG*dA*d[5mC]*dT*d[5mC]*d[5mC]*d[5mC]*d[5mC]*eA*eG*e[5mC]*e[5mC]*eA) [compound 771836] | 6 | 25 | 22 | 41 | > 20 | 28 | – |
| 771777 (antisense e[5mC]*e[5mC]*e[5mC]*eT*e[5mC]*dA*dG*dT*d[5mC]*dT*d[5mC]*dA*dG*dA*dT*eA*eA*e[5mC]*eA*eG) [compound 771777] | 0 | 0 | 27 | 50 | 8 | – | % inhibition of SMAD7 mRNA expression [1, 5]: 50% |
| 771583 (antisense eT*eG*e[5mC]*eT*e[5mC]*d[5mC]*dT*dG*dG*d[5mC]*dA*dG*d[5mC]*dT*dG*e[5mC]*eT*eG*eG*eG) [compound 771583] | 0 | 15 | 36 | 59 | 10 | – | % inhibition of SMAD7 mRNA expression [1, 3]: 57% |
| 771797 (antisense eG*e[5mC]*eA*e[5mC]*eA*dG*dA*d[5mC]*dT*dG*d[5mC]*d[5mC]*dA*dA*dA*eT*e[5mC]*eA*e[5mC]*eA) [compound 771797] | 1 | 0 | 15 | 35 | > 20 | – | % inhibition of SMAD7 mRNA expression [1, 6]: 62% |
| 771732 (antisense eG*eT*e[5mC]*eA*eT*dG*dT*dG*dA*dA*d[5mC]*dA*d[5mC]*dT*d[5mC]*eT*eT*eT*e[5mC]*eA) [compound 771732] | 35 | 24 | 39 | 58 | 15 | 36 | – |
| 771815 (antisense e[5mC]*eT*e[5mC]*e[5mC]*e[5mC]*dT*dT*dT*dT*d[5mC]*dA*d[5mC]*dT*dG*d[5mC]*eT*e[5mC]*e[5mC]*eA*e[5mC]) [compound 771815] | 0 | 0 | 22 | 46 | > 20 | 70 | – |
| 771364 (antisense eT*eA*eA*eT*eG*dG*dT*d[5mC]*dT*dG*d[5mC]*dT*d[5mC]*dA*dG*eG*e[5mC]*eT*eT*e[5mC]) [compound 771364] | – | – | – | – | – | – | % inhibition of SMAD7 mRNA expression [1, 5]: 23% |
| 771774 (antisense eG*eA*eA*eA*eA*dA*d[5mC]*dA*dG*dG*dT*dA*dG*dA*dA*eA*eT*eA*eG*eG) [compound 771774] | – | – | – | – | – | 14 | – |
| 771903 (antisense eT*eG*e[5mC]*e[5mC]*eA*dA*d[5mC]*d[5mC]*d[5mC]*d[5mC]*dA*dG*dA*dG*dG*eT*eG*eA*eG*e[5mC]) [compound 771903] | – | – | – | – | – | 20 | – |
| 771748 (antisense eA*e[5mC]*e[5mC]*e[5mC]*e[5mC]*d[5mC]*dA*d[5mC]*dA*dT*dT*dA*dA*dA*d[5mC]*eA*eT*eA*eA*eT) [compound 771748] | – | – | – | – | – | 0 | – |
| 771649 (antisense eA*eA*eG*eT*eA*dT*d[5mC]*dA*dT*dA*d[5mC]*dG*dA*dG*dT*eG*eT*eA*eT*eG) [compound 771649] | – | – | – | – | – | – | % inhibition of SMAD7 mRNA expression [1, 7]: 0% |

| Substance | % inhibition of SMAD7 mRNA expression [2, 4] [%] | % inhibition of SMAD7 mRNA expression ([2]; 1250.0 nM, Study 1) [%] | % inhibition of SMAD7 mRNA expression ([2]; 5000.0 nM, Study 1) [%] | % inhibition of SMAD7 mRNA expression ([2]; 20000.0 nM, Study 1) [%] | IC50 [2] [µM] | % Inhibition [1, 3] [%] | also measured |
| --- | --- | --- | --- | --- | --- | --- | --- |
| 771438 (e[5mC]*e[5mC]*eA*e[5mC]*eG*dG*d[5mC]*d[5mC]*dT*dG*dG*dA*dG*d[5mC]*dA*eG*e[5mC]*eA*eG*e[5mC]; antisense) [compound 771438] | – | – | – | – | – | – | % inhibition of SMAD7 mRNA expression [1, 6]: 26% |
| 771844 (antisense eG*eA*eA*eG*eG*dA*d[5mC]*d[5mC]*dA*dA*dG*dT*d[5mC]*d[5mC]*d[5mC]*eT*e[5mC]*eT*e[5mC]*e[5mC]) [compound 771844] | – | – | – | – | – | 0 | – |
| 771908 (antisense e[5mC]*eA*eA*eA*e[5mC]*dA*dT*d[5mC]*dA*d[5mC]*d[5mC]*dA*d[5mC]*dG*d[5mC]*e[5mC]*eT*e[5mC]*eG*e[5mC]) [compound 771908] | – | – | – | – | – | 26 | – |
| 771744 (antisense eG*eG*e[5mC]*eT*eA*dT*dT*d[5mC]*d[5mC]*d[5mC]*dA*dA*dG*dA*dG*eT*e[5mC]*e[5mC]*eA*eG) [compound 771744] | – | – | – | – | – | – | % Inhibition of SMAD7 mRNA [1, 7]: 40%; % inhibition of SMAD7 mRNA expression [1, 5]: 23% |
| 771680 (antisense eA*eT*eT*eT*eA*dT*dA*dT*dT*dA*dA*dA*dG*d[5mC]*dA*eA*eA*eG*eT*eG) [compound 771680] | – | – | – | – | – | – | % Inhibition of SMAD7 mRNA [1, 7]: 0%; % inhibition of SMAD7 mRNA expression [1, 7]: 0% |
| 771918 (antisense eA*eA*eG*eG*e[5mC]*d[5mC]*dA*d[5mC]*dA*dT*dT*dT*dT*dA*dG*eG*eT*eT*eA*eA) [compound 771918] | – | – | – | – | – | 12 | – |
| 771477 (antisense eT*eG*e[5mC]*eG*eG*dT*dT*dG*dT*dA*d[5mC]*dA*d[5mC]*d[5mC]*d[5mC]*eA*e[5mC]*eA*e[5mC]*eA) [compound 771477] | – | – | – | – | – | – | % inhibition of SMAD7 mRNA expression [1, 3]: 20% |
| 771437 (eG*e[5mC]*e[5mC]*eT*eG*dG*dA*dG*d[5mC]*dA*dG*d[5mC]*dA*dG*d[5mC]*eT*e[5mC]*e[5mC]*eA*eG; antisense) [compound 771437] | – | – | – | – | – | 0 | – |
| 771347 (antisense eT*eG*eG*eG*e[5mC]*d[5mC]*dA*d[5mC]*dT*dG*dG*dT*dG*dT*dT*e[5mC]*eG*eA*e[5mC]*eG) [compound 771347] | – | – | – | – | – | – | % Inhibition of SMAD7 mRNA [1, 7]: 32%; % inhibition of SMAD7 mRNA expression [1, 5]: 0% |
| 771814 (antisense eT*e[5mC]*e[5mC]*e[5mC]*eT*dT*dT*dG*d[5mC]*dT*dG*dG*d[5mC]*d[5mC]*d[5mC]*eA*eG*eT*eT*e[5mC]) [compound 771814] | – | – | – | – | – | 39 | – |
| 771899 (antisense e[5mC]*e[5mC]*eT*eG*eA*dT*dT*dG*dT*d[5mC]*dT*d[5mC]*d[5mC]*dA*d[5mC]*eA*eT*e[5mC]*e[5mC]*e[5mC]) [compound 771899] | – | – | – | – | – | 47 | % inhibition of SMAD7 mRNA expression ([1]; electroporation, 5,000 nM, approximately 24 hours, relative to untreated control cells, gapmers targeting SEQ ID NO: 1 and 2): 57% |
| 771380 (antisense eA*e[5mC]*e[5mC]*eA*eA*dG*dA*dT*d[5mC]*d[5mC]*dA*dT*d[5mC]*dT*dT*eT*eA*eA*eG*e[5mC]) [compound 771380] | – | – | – | – | – | – | % inhibition of SMAD7 mRNA expression [1, 5]: 0% |
| 771411 (e[5mC]*e[5mC]*eT*eT*e[5mC]*dT*d[5mC]*d[5mC]*d[5mC]*d[5mC]*dG*d[5mC]*dA*dG*d[5mC]*eT*e[5mC]*eG*e[5mC]*e[5mC]; antisense) [compound 771411] | – | – | – | – | – | – | % inhibition of SMAD7 mRNA expression [1, 5]: 33% |
| 771448 (eG*eA*eG*eT*e[5mC]*dG*dG*d[5mC]*dT*dA*dA*dG*dG*dT*dG*eA*eT*eG*eG*eG; antisense) [compound 771448] | – | – | – | – | – | 29 | – |
| 771578 (antisense e[5mC]*eT*eG*e[5mC]*e[5mC]*dT*d[5mC]*dT*dG*d[5mC]*d[5mC]*d[5mC]*d[5mC]*dA*d[5mC]*eT*eG*eA*eG*e[5mC]) [compound 771578] | – | – | – | – | – | – | % inhibition of SMAD7 mRNA expression [1, 5]: 50% |
